For one data set, the system named is relapsed/refractory CLL. The settings on record: cited from earlier work.
The next data set relates to CLL. Kind of data set: Compound 1 besylate monotherapy in patients with CLL. It counts as in vivo.
The nature of data set [1]: Environmental stability (heat, acid, base). It counts as physicochemical.
A short description of a further data set: Solubility. It counts as physicochemical.
[2] abbreviates: 25 mg for 21 days of every 28-day cycle.
[3] abbreviates: monotherapy, as of Sep. 11, 2012.

SMILES strings stand for the structures. Read-outs that look alike come from different tables or passages of the source.

The values below come from US20150064172A1, “METHODS OF TREATING A DISEASE OR DISORDER ASSOCIATED WITH BRUTON'S TYROSINE KINASE” (Celgene Avilomics Research, Inc., priority 2013, published 2015).

For the compound `Nc1cccc2c1CN(C1CCC(=O)NC1=O)C2=O` (centres unmarked) [lenalidomide, 3-(4-amino-1-oxo-1,3-dihydro-2H-isoindol-2-yl)piperidine-2,6-dione], in the data set with relapsed/refractory CLL (setting [2]), the “Complete Response [CR]” value was 18%, the “Partial Response [PR]” value was 36%, the “median progression-free survival (PFS) time” value is reported as 19.4 months and the “median time to best response” value is reported as 5.9 months. Also, in the data set on relapsed/refractory CLL (setting [2]), the overall response is recorded as 53%. In addition, the “Clinical responses (CR or PR)” value in the data set with relapsed/refractory CLL (subjects refractory to fludarabine) is listed as 30%. Also, the “Clinical responses (CR or PR)” value with relapsed/refractory CLL (subjects with del (11)(q23) and/or del (17)(p13.1) adverse cytogenetics) was 47%.

For orientation: solubility means how much of the substance goes into solution per volume. With `C=CC(=O)Nc1cccc(Nc2nc(Nc3ccc(OCCOC)cc3)ncc2F)c1.O=S(=O)(O)c1ccccc1` [Compound 1 besylate, N-(3-(5-fluoro-2-(4-(2-methoxyethoxyl)phenylamino)pyrimidin-4-ylamino)phenyl)acrylamide benzenesulfonic acid salt], in the data set with CLL (setting [3]), the “patients who experienced early increases in absolute lymphocyte counts (ALC)” value was 28 of 33; the “patients who experienced reductions in lymph node size” value is given as 15 of 23; the “patients with CLL who experienced stable disease and continue on treatment” value was 35 out of 43. Further, the “environmental instabilities (i.e. heat, acid, base)” value in data set [1] is given as “no environmental instabilities”. Further, the solubility in “Solubility” (ethanol, organic solvent or mixture, read-out: solubility in ethanol) was about 10000 µg/mL. In addition, the solubility in the data set “Solubility” (water, read-out: solubility in water) was about 160 µg/mL.

As for `C=CC(=O)Nc1cccc(Nc2nc(Nc3ccc(OCCOC)cc3)ncc2F)c1` [Compound 1, N-(3-(5-fluoro-2-(4-(2-methoxyethoxyl)phenylamino)pyrimidin-4-ylamino)phenyl)acrylamide], the “maximum tolerated dose (MTD)” value with CLL (single agent) is on record as “has not yet been reached”.
